Structures can show the parent of a compound that is named as a salt. Where two headings read alike, the source gives them in different places.

The record followed here is patent US9487501B2, “Pyrazole carboxamide compounds and uses thereof” (Hoffmann-La Roche Inc., priority 2012, dated 2016).

One test addresses rat TAAR1 (Rattus norvegicus (Rat), UniProt Q923Y9). The test can be described thus: Radioligand binding assay on rat TAAR1.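 Also: stably transfected HEK293 cell membranes with a tritiated radioligand, 1 h incubation at 4 °C, nonspecific binding taken as binding with 10 µM unlabeled ligand.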
The target of another test is mouse TAAR1 (Mus musculus (Mouse), UniProt Q923Y8). The experiment in a line: Radioligand binding assay on mouse TAAR1.
The mark [1] stands for this setting: read-out: Ki (μM) rat, rat TAAR1, membranes of HEK-293 cells, radioligand displacement.
The mark [2] stands for this setting: read-out: Ki (μM) mouse, mouse TAAR1, membranes of HEK-293 cells, radioligand displacement.

Sequence of rat TAAR1 (Q923Y9 whole entry): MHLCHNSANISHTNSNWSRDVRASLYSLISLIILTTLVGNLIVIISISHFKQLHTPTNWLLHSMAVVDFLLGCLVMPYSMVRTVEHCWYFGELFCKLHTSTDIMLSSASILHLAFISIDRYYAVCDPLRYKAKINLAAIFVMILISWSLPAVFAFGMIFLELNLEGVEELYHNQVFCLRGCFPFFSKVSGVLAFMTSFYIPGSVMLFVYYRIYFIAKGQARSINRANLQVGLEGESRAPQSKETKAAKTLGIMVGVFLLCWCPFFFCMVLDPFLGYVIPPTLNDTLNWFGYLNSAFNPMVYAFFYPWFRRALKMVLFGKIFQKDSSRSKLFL
Sequence of mouse TAAR1 (Q923Y8 whole entry): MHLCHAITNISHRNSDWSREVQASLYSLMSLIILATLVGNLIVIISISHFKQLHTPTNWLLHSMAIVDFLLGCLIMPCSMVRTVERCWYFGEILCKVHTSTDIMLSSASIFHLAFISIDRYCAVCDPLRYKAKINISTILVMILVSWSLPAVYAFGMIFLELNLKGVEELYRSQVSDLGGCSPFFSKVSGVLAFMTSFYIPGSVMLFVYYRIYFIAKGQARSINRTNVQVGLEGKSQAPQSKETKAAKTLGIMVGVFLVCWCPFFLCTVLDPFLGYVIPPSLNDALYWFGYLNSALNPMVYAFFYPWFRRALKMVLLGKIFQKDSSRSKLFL
Description for mouse TAAR1: (§1) For the generation of stably transfected cell lines HEK293 cells were transfected with the pIRESneo2 expression plasmids containing the TAAR coding sequences (described above) with Lipofectamine 2000 (Invitrogen) according to the instructions of the manufacturer, and 24 hrs post transfection the culture medium was supplemented with 1 mg/ml G418 (Sigma, Buchs, Switzerland). […] Radioligand Binding Assay on Rat TAAR1 Membrane Preparation and Radioligand Binding. […] Cells were released from culture flasks using trypsin/EDTA, harvested, washed twice with ice-cold PBS (without Ca^2+ and Mg^2+), pelleted at 1,000 rpm for 5 min at 4° C., frozen and stored at −80° C. Frozen pellets were suspended in 20 ml HEPES-NaOH (20 mM, pH 7.4) containing 10 mM EDTA and homogenized with a Polytron (PT 6000, Kinematica) at 14,000 rpm for 20 s. The homogenate was centrifuged at 48,000×g for 30 min at 4° C. Subsequently, the supernatant was removed and discarded, and the pellet resuspended in 20 ml HEPES-NaOH (20 mM, pH 7.4) containing 0.1 mM EDTA using the Polytron (20 s at 14,000 rpm). This procedure was repeated and the final pellet resuspended in HEPES-NaOH containing 0.1 mM EDTA and homogenized using the Polytron. Typically, aliquots of 2 ml membrane portions were stored at −80° C. With each new membrane batch the dissociation constant (Kd) was determined via a saturation curve. […] Nonspecific binding was defined as the amount of ^3[H]-(S)-4-[(ethyl-phenyl-amino)-methyl]-4,5-dihydro-oxazol-2-ylamine bound in the presence of 10 μM unlabeled ligand. All compounds were tested at a broad range of concentrations (10 pM to 10 μM) in duplicates. […] The 96 deep well plates were incubated for 1 hr at 4° C. Incubations were terminated by rapid filtration through Unifilter-96 plates (Packard Instrument Company) and glass filters GF/C (Perkin Elmer) presoaked for 1 hr in polyethylenimine (0.3%) and washed 3 times with 1 ml of cold binding buffer. After addition of 45 μl of Microscint 40 (PerkinElmer) the Unifilter-96 plate was sealed and after 1 hr the radioactivity counted using a TopCount Microplate Scintillation Counter (Packard Instrument Company). Radioligand Binding Assay on Mouse TAAR1 Membrane Preparation and Radioligand Binding. […] Cells were released from culture flasks using trypsin/EDTA, harvested, washed twice with ice-cold PBS (without Ca^2+ and Mg^2+), pelleted at 1,000 rpm for 5 min at 4° C., frozen and stored at −80° C. Frozen pellets were suspended in 20 ml HEPES-NaOH (20 mM, pH 7.4) containing 10 mM EDTA and homogenized with a Polytron (PT 6000, Kinematica) at 14,000 rpm for 20 s. The homogenate was centrifuged at 48,000×g for 30 min at 4° C. Subsequently, the supernatant was removed and discarded, and the pellet resuspended in 20 ml HEPES-NaOH (20 mM, pH 7.4) containing 0.1 mM EDTA using the Polytron (20 s at 14,000 rpm). This procedure was repeated and the final pellet resuspended in HEPES-NaOH containing 0.1 mM EDTA and homogenized using the Polytron. Typically, aliquots of 2 ml membrane portions were stored at −80° C. With each new membrane batch the dissociation constant (Kd) was determined via a saturation curve.
Description for rat TAAR1: as §1

As to `N#Cc1ccc(-n2cc(C(=O)Nc3ccc([C@H]4CNCCO4)cc3)cn2)c(F)c1` [Example 23, (S)-1-(4-cyano-2-fluorophenyl)-N-(4-(morpholin-2-yl)phenyl)-1H-pyrazole-4-carboxamide hydrochloride], the results for the Ki on rat TAAR1 (setting [1]) and on mouse TAAR1 (setting [2]) were 0.007 µM and 0.0041 µM, respectively.

In the case of `O=C(Nc1ccc([C@H]2CNCCO2)cc1)c1cnn(-c2ccc(F)cc2)c1` [Example 4, (S)-1-(4-fluorophenyl)-N-(4-(morpholin-2-yl)phenyl)-1H-pyrazole-4-carboxamide hydrochloride], the values for the Ki at rat TAAR1 (setting [1]) and at mouse TAAR1 (setting [2]) were 0.0033 µM and 0.0007 µM, respectively.

As for `O=C(Nc1ccc([C@H]2CNCCO2)cc1)c1cnn(-c2nc(C(F)(F)F)cs2)c1` [Example 57, (S)—N-(4-(morpholin-2-yl)phenyl)-1-(4-(trifluoromethyl)thiazol-2-yl)-1H-pyrazole-4-carboxamide hydrochloride], the Ki (usually a measure of affinity in units of concentration, obtained from inhibition or displacement) at rat TAAR1 (setting [1]) is 0.0011 µM; on mouse TAAR1 (setting [2]), 0.0019 µM.

Turning to `O=C(Nc1ccc([C@H]2CNCCO2)cc1)c1cnn(-c2cnc(Cl)cn2)c1` [Example 46, (S)-1-(5-chloropyrazin-2-yl)-N-(4-(morpholin-2-yl)phenyl)-1H-pyrazole-4-carboxamide hydrochloride], the Ki at rat TAAR1 (setting [1]) turned out to be 0.0056 µM; on mouse TAAR1 (setting [2]), 0.0031 µM.

As to `O=C(Nc1ccc([C@H]2CNCCO2)cc1)c1cnn(-c2ccc(Br)cn2)c1` [Example 9, (S)-1-(5-bromopyridin-2-yl)-N-(4-(morpholin-2-yl)phenyl)-1H-pyrazole-4-carboxamide hydrochloride], the Ki at rat TAAR1 (setting [1]) was 0.0043 µM; on mouse TAAR1 (setting [2]), 0.0017 µM.

As to `COc1ccc(-n2cc(C(=O)Nc3ccc([C@H]4CNCCO4)cc3)cn2)cc1` [Example 3, (S)-1-(4-methoxyphenyl)-N-(4-(morpholin-2-yl)phenyl)-1H-pyrazole-4-carboxamide hydrochloride], the figures for the Ki on rat TAAR1 (setting [1]) and on mouse TAAR1 (setting [2]) were 0.0165 µM and 0.0025 µM, respectively.

For the compound `Cc1c(C(=O)Nc2ccc([C@H]3CNCCO3)cc2)cnn1-c1ccccc1` [Example 1, (S)-5-methyl-N-(4-(morpholin-2-yl)phenyl)-1-phenyl-1H-pyrazole-4-carboxamide hydrochloride], the Ki came to 0.229 µM at rat TAAR1 (setting [1]) and 0.0086 µM at mouse TAAR1 (setting [2]).

On to `O=C(Nc1ccc([C@H]2CNCCO2)cc1)c1cnn(-c2cncc(Cl)n2)c1` [Example 33, (S)-1-(6-chloropyrazin-2-yl)-N-(4-(morpholin-2-yl)phenyl)-1H-pyrazole-4-carboxamide hydrochloride], for which the Ki is 0.0068 µM on rat TAAR1 (setting [1]) and 0.0032 µM at mouse TAAR1 (setting [2]).

For `O=C(Nc1ccc([C@H]2CNCCO2)cc1)c1cnn(-c2ccc(C(F)(F)F)cn2)c1` [Example 11, (S)—N-(4-(morpholin-2-yl)phenyl)-1-(5-(trifluoromethyl)pyridin-2-yl)-1H-pyrazole-4-carboxamide hydrochloride], the Ki at rat TAAR1 (setting [1]) and on mouse TAAR1 (setting [2]) was 0.0023 µM each time.

Regarding `O=C(Nc1ccc(C2CCCNC2)cc1)c1cnn(-c2ccc(OC(F)F)cc2)c1` (racemic) [Example 55, (RS)-1-(4-difluoromethoxy-phenyl)-1H-pyrazole-4-carboxylic acid (4-piperidin-3-yl-phenyl)-amide hydrochloride], the Ki at rat TAAR1 came out at 0.003 µM; on mouse TAAR1, 0.002 µM.

With `N#Cc1cccc(-n2cc(C(=O)Nc3ccc([C@H]4CNCCO4)cc3)cn2)c1` [Example 13, (S)-1-(3-cyanophenyl)-N-(4-(morpholin-2-yl)phenyl)-1H-pyrazole-4-carboxamide hydrochloride], the Ki at rat TAAR1 (setting [1]) is 0.0072 µM; at mouse TAAR1 (setting [2]), 0.0023 µM.

`CCN(C[C@H]1COC(N)=N1)c1ccccc1` [reference compound]: the Kd (as a rule, the equilibrium constant for the complex coming apart) was around 2.3 nM at rat TAAR1 (read-out: dissociation constant (Kd) of the radioligand, rat TAAR1 membranes, saturation curve) and around 0.7 nM at mouse TAAR1 (read-out: dissociation constant (Kd) of the radioligand, mouse TAAR1 membranes, saturation curve).

In the case of `O=C(Nc1ccc([C@H]2CNCCO2)cc1)c1cnn(-c2cnc(C(F)(F)F)nc2)c1` [Example 45, (S)—N-(4-(morpholin-2-yl)phenyl)-1-(2-(trifluoromethyl)pyrimidin-5-yl)-1H-pyrazole-4-carboxamide hydrochloride], the Ki on rat TAAR1 (setting [1]) amounted to 0.0059 µM; on mouse TAAR1 (setting [2]), 0.0214 µM.

Take `O=C(Nc1ccc([C@H]2CNCCO2)cc1)c1cnn(-c2cncc(C(F)(F)F)n2)c1` [Example 38, (S)—N-(4-(morpholin-2-yl)phenyl)-1-(6-(trifluoromethyl)pyrazin-2-yl)-1H-pyrazole-4-carboxamide hydrochloride]: the Ki on rat TAAR1 (setting [1]) came out at 0.0059 µM; on mouse TAAR1 (setting [2]), 0.0075 µM.

As for `N#Cc1ccc(-n2cc(C(=O)Nc3ccc([C@H]4CNCCO4)cc3)cn2)nc1` [Example 8, (S)-1-(5-cyanopyridin-2-yl)-N-(4-(morpholin-2-yl)phenyl)-1H-pyrazole-4-carboxamide hydrochloride], the Ki on rat TAAR1 (setting [1]) was found to be 0.0147 µM; on mouse TAAR1 (setting [2]), 0.0089 µM.

Take `N#Cc1nccnc1-n1cc(C(=O)Nc2ccc([C@H]3CNCCO3)cc2)cn1` [Example 52, (S)-1-(3-cyanopyrazin-2-yl)-N-(4-(morpholin-2-yl)phenyl)-1H-pyrazole-4-carboxamide hydrochloride]: the Ki amounted to 0.0451 µM at rat TAAR1 (setting [1]) and 0.0179 µM at mouse TAAR1 (setting [2]).

For the compound `O=C(Nc1ccc([C@H]2CNCCO2)cc1)c1cnn(-c2ccnc(Br)c2)c1` [Example 16, (S)-1-(2-bromopyridin-4-yl)-N-(4-(morpholin-2-yl)phenyl)-1H-pyrazole-4-carboxamide hydrochloride], the Ki on rat TAAR1 (setting [1]) is 0.0029 µM; at mouse TAAR1 (setting [2]), 0.0035 µM.

Take `O=C(Nc1ccc([C@H]2CNCCO2)cc1)c1cnn(-c2ccc(Cl)cn2)c1` [Example 7, (S)-1-(5-chloropyridin-2-yl)-N-(4-(morpholin-2-yl)phenyl)-1H-pyrazole-4-carboxamide hydrochloride]: the Ki stood at 0.0046 µM at rat TAAR1 (setting [1]) and 0.0016 µM on mouse TAAR1 (setting [2]).

`O=C(Nc1ccc([C@H]2CNCCO2)cc1)c1cnn(-c2ccc3c(c2)OC(F)(F)O3)c1` [Example 29, (S)-1-(2,2-difluorobenzo[d][1,3]dioxol-5-yl)-N-(4-(morpholin-2-yl)phenyl)-1H-pyrazole-4-carboxamide hydrochloride]: the Ki stood at 0.0014 µM on rat TAAR1 (setting [1]) and 0.0023 µM on mouse TAAR1 (setting [2]).

As to `Cc1c(C(=O)Nc2ccc([C@H]3CNCCO3)cc2)cnn1-c1ccc(C#N)cc1` [Example 35, (S)-1-(4-cyanophenyl)-5-methyl-N-(4-(morpholin-2-yl)phenyl)-1H-pyrazole-4-carboxamide hydrochloride], the Ki was 0.167 µM at rat TAAR1 (setting [1]) and 0.0601 µM on mouse TAAR1 (setting [2]).

Turning to `O=C(Nc1ccc([C@@H]2CNCCO2)cc1)c1cnn(-c2ccc(F)cc2)c1` [Example 12, (R)-1-(4-fluorophenyl)-N-(4-(morpholin-2-yl)phenyl)-1H-pyrazole-4-carboxamide hydrochloride], the Ki is 0.0011 µM on rat TAAR1 (setting [1]) and 0.0012 µM on mouse TAAR1 (setting [2]).

For `Cc1cncc(-n2cc(C(=O)Nc3ccc([C@H]4CNCCO4)cc3)cn2)n1` [Example 39, (S)-1-(6-methylpyrazin-2-yl)-N-(4-(morpholin-2-yl)phenyl)-1H-pyrazole-4-carboxamide hydrochloride], the Ki on rat TAAR1 (setting [1]) was determined as 0.0435 µM; on mouse TAAR1 (setting [2]), 0.0088 µM.

`O=C(Nc1ccc([C@@H]2CNCCO2)cc1)c1cnn(-c2ccc(OC(F)F)cc2)c1` [Example 27, (R)-1-(4-(difluoromethoxy)phenyl)-N-(4-(morpholin-2-yl)phenyl)-1H-pyrazole-4-carboxamide hydrochloride]: the Ki at rat TAAR1 (setting [1]) was found to be 0.001 µM; on mouse TAAR1 (setting [2]) it was 0.0013 µM.
